From US9302999B2, “Substituted triazoles as herbicides” (E. I. DU PONT DE NEMOURS AND COMPANY, priority 2012, dated 2016) come the findings set out here.

Experiment [1] concerns johnsongrass (Sorghum halepense). In words: Test E pre-/postemergence: johnsongrass. The experiment is classed as in vivo. Conditions: Preemergence, scale 0 to 100. An excerpt: Seeds of plant species selected from corn (Zea mays), soybean (Glycine max), velvetleaf (Abutilon theophrasti), lambsquarters (Chenopodium album), poinsettia, wild (wild poinsettia, Euphorbia heterophylla), pigweed, palmer (palmer pigweed, Amaranthus palmeri), waterhemp (common waterhemp, Amaranthus rudis), smartweed (ladysthumb smartweed, Polygonum persicaria), surinam grass (Brachiaria decumbens), crabgrass, large (large crabgrass, Digitaria sanguinalis), crabgrass, Brazil (Brazilian crabgrass, Digitaria horizontalis), panicum, fall (fall panicum, Panicum dichotomiflorum), foxtail, giant (giant foxtail, Setaria faberii), foxtail, green (green foxtail, Setaria viridis), goosegrass (Eleusine indica), johnsongrass (Sorghum halepense), ragweed (common ragweed, Ambrosia elation), barnyardgrass (Echinochloa crus-galli), sandbur (southern sandbur, Cenchrus echinatus), arrowleaf sida (Sida rhombifolia), ryegrass, Italian (Italian ryegrass, Lolium multiflorum), dayflower, (VA) (Virginia dayflower, Commelina virginica), field bindweed (Convolvulus arvensis), cocklebur (common cocklebur, Xanthium strumarium), morningglory (Ipomoea coccinea), nightshade (eastern black nightshade, Solanum ptycanthum), kochia (Kochia scoparia), nutsedge, yellow (yellow nutsedge, Cyperus esculentus) and beggarticks (hairy beggarticks, Bidens pilosa) were planted into a silt loam soil and treated preemergence with test chemicals formulated in a non-phytotoxic solvent mixture which included a surfactant. At the same time, plants selected from these crop and weed species were planted in pots containing a growing medium comprising spaghnum peat moss, vermiculite, wetting agent and starter nutrients and treated with postemergence applications of some of the test chemicals formulated in the same manner. Plants ranged in height from 2 to 18 cm for postemergence treatments (1- to 4-leaf stage).
(§1) Treated plants and controls were maintained in a greenhouse for 14 to 21 days, after which time all species were compared to controls and visually evaluated. Plant response ratings, summarized in Table E, are based on a scale of 0 to 100 where 0 is no effect and 100 is complete control. A dash (-) response means no test result.

For experiment [2], the system named is goosegrass (Eleusine indica). In words: Test F pre-/postemergence: goosegrass. The experiment is classed as in vivo. The note with it: Preemergence.
Excerpt: (§2) Seeds of plant species selected from corn (Zea mays), soybean (Glycine max), velvetleaf (Abutilon theophrasti), lambsquarters (Chenopodium album), poinsettia, wild (wild poinsettia, Euphorbia heterophylla), pigweed, palmer (palmer pigweed, Amaranthus palmeri), waterhemp (common waterhemp, Amaranthus rudis), surinam grass (Brachiaria decumbens), crabgrass, Brazil (Brazilian crabgrass, Digitaria horizontalis), panicum, fall (fall panicum Panicum dichotomiflorum), crabgrass, large (large crabgrass, Digitaria sanguinalis), foxtail, giant (giant foxtail, Setaria faberii), foxtail, green (green foxtail Setaria viridis), goosegrass (Eleusine indica), ragweed (common ragweed, Ambrosia elatior), barnyardgrass (Echinochloa crus-galli), sandbur (southern sandbur, Cenchrus echinatus), arrowleaf sida (Sida rhombifolia), ryegrass, Italian (Italian ryegrass, Lolium multiflorum), dayflower, VA (Virginia (VA) dayflower, Commelina virginica), field bindweed (Convolvulus arvensis), cocklebur (common cocklebur, Xanthium strumarium), morningglory (Ipomoea coccinea), nightshade (eastern black nightshade, Solanum ptycanthum), kochia (Kochia scoparia), nutsedge, yellow (yellow nutsedge, Cyperus esculentus), johnsongrass (Sorghum halepense), smartweed (ladysthumb smartweed, Polygonum persicaria), and beggarticks (hairy beggarticks, Bidens pilosa), were planted into a silt loam soil and treated preemergence with test chemicals formulated in a non-phytotoxic solvent mixture which included a surfactant. At the same time, plants selected from these crop and weed species and also pigweed (Amaranthus retroflexus), waterhemp_RES1 (ALS/Triazine resistant common waterhemp, Amaranthus rudis) and waterhemp_RES2 (ALS/HPPD resistant common waterhemp, Amaranthus rudis) were planted in pots containing a planting medium comprising spaghnum peat moss, vermiculite, wetting agent and starter nutrients treated with postemergence applications of some of the test chemicals formulated in the same manner. Plants ranged in height from 2 to 18 cm for postemergence treatments (1- to 4-leaf stage).
as §1

The subject of the next experiment is kochia (Kochia scoparia). Nature of the experiment: Test F pre-/postemergence: kochia. Conditions: Preemergence. The experiment is classed as in vivo.
Excerpt: as §2, §1

Experiment [3] has as its system waterhemp (common waterhemp, Amaranthus rudis). In words: Test F pre-/postemergence: waterhemp. The experiment is classed as in vivo.
Excerpt: as §2, §1

The test system of experiment [4] is Oilseed Rape. Nature of the experiment: Test C postemergence: oilseed rape. Conditions: 125 g ai/ha, scale 0 to 100, 0 no effect, 100 complete control. The experiment is classed as in vivo, Brassica napus. An excerpt: Seeds of plant species selected from blackgrass (Alopecurus myosuroides), bromegrass, downy (downy bromegrass, Bromus tectorum), foxtail, green (green foxtail, Setaria viridis), ryegrass, Italian (Italian ryegrass, Lolium multiflorum), winter wheat (Triticum aestivum), wild oat (Avena fatua), galium (catchweed bedstraw, Galium aparine), bermudagrass (Cynodon dactylon), surinam grass (Brachiaria decumbens), cocklebur (common cocklebur, Xanthium strumarium), corn (Zea mays), large crabgrass (Digitaria sanguinalis), woolly cupgrass (Eriochloa villosa), foxtail, giant (giant foxtail, Setaria faberii), goosegrass (Eleusine indica), johnsongrass (Sorghum halepense), kochia (Kochia scoparia), lambsquarters (Chenopodium album), morningglory (Ipomoea coccinea), nightshade (eastern black nightshade, Solanum ptycanthum), nutsedge, yellow (yellow nutsedge, Cyperus esculentus), pigweed (Amaranthus retroflexus), ragweed (common ragweed, Ambrosia elation), soybean (Glycine max), common (oilseed) sunflower (Helianthus annuus), Russian thistle (Salsola kali) and velvetleaf (Abutilon theophrasti) were planted into a blend of loam soil and sand and treated preemergence with test chemicals formulated in a non-phytotoxic solvent mixture which included a surfactant.
(§3) At the same time, plants selected from these crop and weed species and also barley (winter barley, Hordeum vulgare), canarygrass (Phalaris minor), chickweed (common chickweed, Stellaria media) windgrass (Apera spica-venti) and deadnettle (henbit deadnettle, Lamium amplexicaule) were planted in pots containing Redi-Earth® planting medium (Scotts Company, 14111 Scottslawn Road, Marysville, Ohio 43041) comprising spaghnum peat moss, vermiculite, wetting agent and starter nutrients and treated with postemergence applications of test chemicals formulated in the same manner. Plants ranged in height from 2 to 18 cm (1- to 4-leaf stage) for postemergence treatments.
(§4) Treated plants and controls were maintained in a greenhouse for 13 to 15 days, after which time all species were compared to controls and visually evaluated. Plant response ratings, summarized in Table C, are based on a scale of 0 to 100 where 0 is no effect and 100 is complete control. A dash (-) response means no test result.

A further experiment relates to Waterhemp. In words: Test C postemergence: waterhemp. The experiment is classed as in vivo.
Excerpt: as §3, §4

For experiment [5], the system named is Oilseed Rape. Nature of the experiment: Test C preemergence: oilseed rape. The experiment is classed as in vivo. The note with it: scale 0 (no effect) to 100 (complete control).
[6] abbreviates: 16 g ai/ha, scale 0 to 100 (0 no effect, 100 complete control).
[7] abbreviates: 31 g ai/ha, scale 0 to 100 (0 no effect, 100 complete control).
Setting [8] is: Preemergence, 16 g ai/ha, scale 0 to 100 (0 no effect, 100 complete control).
Where [9] appears, read: Preemergence, 31 g ai/ha, scale 0 to 100 (0 no effect, 100 complete control).
[10] abbreviates: Preemergence, 125 g ai/ha, scale 0 to 100.
[11] abbreviates: Postemergence, 8 g ai/ha, scale 0 to 100.
The mark [12] stands for this setting: Postemergence, 16 g ai/ha, scale 0 to 100.
Setting [13] is: Postemergence, 31 g ai/ha, scale 0 to 100.
[14] abbreviates: Postemergence, 62 g ai/ha, scale 0 to 100.
The mark [15] stands for this setting: 62 g ai/ha, scale 0 to 100 (0 no effect, 100 complete control).
Setting [16] is: 4 g ai/ha, scale 0 to 100, 0 no effect, 100 complete control.

Structures are written as SMILES.

Consider `Cc1nn(-c2ccc(F)cc2)nc1Cc1ccnc(C(F)(F)F)c1` [Compound 16, 4-[[2-(4-fluorophenyl)-5-methyl-2H-1,2,3-triazol-4-yl]methyl]-2-(trifluoromethyl)pyridine], for which the “Plant response rating: Johnsongrass” value in experiment [1] (8 g ai/ha) is on record as 0; in experiment [1] (16 g ai/ha), 15; in experiment [1] (31 g ai/ha) it was 20; in experiment [1] (62 g ai/ha), 40; in experiment [1] (125 g ai/ha), 98.

In the case of `Cc1nn(-c2ccc(C(F)(F)F)cc2)nc1Cc1ccnc(C(F)(F)F)c1` [Compound 47, 4-[[5-methyl-2-[4-(trifluoromethyl)phenyl]-2H-1,2,3-triazol-4-yl]methyl]-2-(trifluoromethyl)pyridine], the “Plant response rating: Johnsongrass” value in experiment [1] (16 g ai/ha) is 25; in experiment [1] (31 g ai/ha) it was 30; in experiment [1] (62 g ai/ha), 35; in experiment [1] (125 g ai/ha), 40; in experiment [1] (250 g ai/ha), 100.

As for `Cc1nn(-c2ccc(F)cc2)nc1Oc1ccnc(C(F)(F)F)c1` [Compound 129, 4-[[2-(4-fluorophenyl)-5-methyl-2H-1,2,3-triazol-4-yl]oxy]-2-(trifluoromethyl)pyridine], the “Plant response rating: Johnsongrass” value was 0 in experiment [1] (8 g ai/ha); 20 in experiment [1] (16 g ai/ha); 20 in experiment [1] (31 g ai/ha); 20 in experiment [1] (62 g ai/ha); 25 in experiment [1] (125 g ai/ha).

Turning to `Fc1ccc(-n2nc(Cc3ccnc(C(F)(F)F)c3)c(OCC(F)(F)F)n2)cc1` [Compound 142], the “Plant response rating, Goosegrass” value in experiment [2] (setting [6]) is 40; in experiment [2] (setting [7]), 70; in experiment [2] (62 g ai/ha, scale 0 to 100) it was 100; in experiment [2] (125 g ai/ha, scale 0 to 100) it was 100. Also, the “Plant response rating, Kochia” value is 20 in the experiment with kochia (Kochia scoparia) (setting [6]); 80 in the experiment with kochia (Kochia scoparia) (setting [7]); 85 in the experiment on kochia (Kochia scoparia) (62 g ai/ha, scale 0 to 100); 95 with kochia (Kochia scoparia) (125 g ai/ha, scale 0 to 100). Further, the figures for the “Plant response rating, Waterhemp” value in experiment [3] (setting [8]), in experiment [3] (setting [9]) and in experiment [3] (setting [10]) were 98, 98 and 100, respectively.

On to `Cc1nn(-c2ccc(F)c(F)c2)nc1Oc1ccnc(C(F)(F)F)c1` [Compound 145], for which the “Plant response rating, Waterhemp” value in experiment [3] (setting [11]) was 90; in experiment [3] (setting [12]), 90; in experiment [3] (setting [13]), 95; in experiment [3] (setting [14]) it was 95; in experiment [3] (Postemergence, 125 g ai/ha, scale 0 to 100), 95.

With `CCCc1nn(-c2ccc(F)cc2)nc1Cc1ccnc(C(F)(F)F)c1` [Compound 153], the “Plant response rating, Goosegrass” value was determined as 80 in experiment [2] (setting [6]); 95 in experiment [2] (setting [7]); 98 in experiment [2] (62 g ai/ha, scale 0 to 100); 100 in experiment [2] (125 g ai/ha, scale 0 to 100); 100 in experiment [2] (250 g ai/ha, scale 0 to 100). Also, the “Plant response rating, Kochia” value with kochia (Kochia scoparia) (setting [6]) is on record as 25; with kochia (Kochia scoparia) (setting [7]) it was 75; in the experiment on kochia (Kochia scoparia) (62 g ai/ha, scale 0 to 100), 95; with kochia (Kochia scoparia) (125 g ai/ha, scale 0 to 100), 100; in the experiment on kochia (Kochia scoparia) (250 g ai/ha, scale 0 to 100), 100. The “Plant response rating, Oilseed Rape” value in the experiment with Oilseed Rape [4] is recorded as 90. The “Plant response rating, Waterhemp” value with Waterhemp (setting [7]) turned out to be 98; in the experiment with Waterhemp (setting [15]), 98; in the experiment on Waterhemp (250 g ai/ha, scale 0 to 100) it was 98; in experiment [3] (setting [8]), 65; in experiment [3] (setting [9]), 100; in experiment [3] (setting [10]), 100. Moreover, the “Plant response rating, Waterhemp” value in experiment [3] (Preemergence, 250 g ai/ha, scale 0 to 100) turned out to be 100.

Regarding `Cc1nn(-c2ccc(C(F)(F)F)c(F)c2)nc1Cc1ccnc(C(F)(F)F)c1` [Compound 162], the “Plant response rating, Goosegrass” value in experiment [2] (setting [16]) is reported as 0; in experiment [2] (8 g ai/ha, scale 0 to 100, 0 no effect, 100 complete control), 0; in experiment [2] (setting [6]), 95; in experiment [2] (setting [7]) it was 100; in experiment [2] (62 g ai/ha, scale 0 to 100) it was 100. The “Plant response rating, Kochia” value in the experiment with kochia (Kochia scoparia) (setting [16]) worked out at 30; in the experiment on kochia (Kochia scoparia) (setting [7]), 70; in the experiment on kochia (Kochia scoparia) (62 g ai/ha, scale 0 to 100), 98. The “Plant response rating, Oilseed Rape” value with Oilseed Rape [4] was 90. Moreover, the “Plant response rating, Waterhemp” value turned out to be 98 in the experiment on Waterhemp (setting [7]); 100 in the experiment with Waterhemp (setting [15]); 100 in the experiment with Waterhemp (250 g ai/ha, scale 0 to 100); 80 in experiment [3] (Postemergence, 4 g ai/ha, scale 0 to 100); 90 in experiment [3] (setting [11]); 90 in experiment [3] (setting [12]). Moreover, the “Plant response rating, Waterhemp” value was 95 in experiment [3] (setting [13]); 95 in experiment [3] (setting [14]); 50 in experiment [3] (Preemergence, 4 g ai/ha, scale 0 to 100, 0 no effect, 100 complete control); 85 in experiment [3] (Preemergence, 8 g ai/ha, scale 0 to 100, 0 no effect, 100 complete control); 90 in experiment [3] (setting [8]); 100 in experiment [3] (setting [9]).

Turning to `CCc1nn(-c2ccc(F)cc2)nc1Oc1ccnc(C(F)(F)F)c1` [Compound 166], the “Plant response rating, Oilseed Rape” value in the experiment with Oilseed Rape [4] is on record as 5; with Oilseed Rape [5] (31 g ai/ha), 50. Further, the “Plant response rating, Waterhemp” value in the experiment with Waterhemp (250 g ai/ha, scale 0 to 100) is 98.

As to `CCOc1nn(-c2ccc(Br)cc2)nc1Cc1ccnc(C(F)(F)F)c1` [Compound 189], in the experiment on Oilseed Rape [5] (16 g ai/ha), the “Plant response rating, Oilseed Rape” value was 5.
